Test [1] relates to human tumor xenograft models. The conditions noted are these: cited from earlier work.
For test [2], the system named is acute lymphoblastic leukemia. The settings on record: in vivo; cited from earlier work.
The target in test [3] is mTOR (Homo sapiens, UniProt P42345). The settings on record: read-out: mTOR IC50; mTOR complexes / mTOR enzymes; cited from earlier work.
In test [4] the target is PI3Kγ (Homo sapiens, UniProt P48736). The experiment in a line: PI3K-gamma fluorescence polarization assay. In kind it is biochemical. The settings on record: 20 μM PIP2, 25 μM ATP; read-out: PI3Kγ Median IC50. In short, it runs like this: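 Enzyme preincubated with compound in 20 mM HEPES pH 7.5, 2 mM MgCl2, 0.05% CHAPS, 0.01% βME; reaction started with substrate giving 20 μM diC8 PIP2 and 25 μM ATP final, run 30-60 min at room temperature. Stopped with TAMRA-labelled PIP3 detector probe plus GST-GRP; PIP3 formation read by fluorescence polarization after 90-110 min.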
Chain of PI3Kγ (P48736 whole entry, species assumed): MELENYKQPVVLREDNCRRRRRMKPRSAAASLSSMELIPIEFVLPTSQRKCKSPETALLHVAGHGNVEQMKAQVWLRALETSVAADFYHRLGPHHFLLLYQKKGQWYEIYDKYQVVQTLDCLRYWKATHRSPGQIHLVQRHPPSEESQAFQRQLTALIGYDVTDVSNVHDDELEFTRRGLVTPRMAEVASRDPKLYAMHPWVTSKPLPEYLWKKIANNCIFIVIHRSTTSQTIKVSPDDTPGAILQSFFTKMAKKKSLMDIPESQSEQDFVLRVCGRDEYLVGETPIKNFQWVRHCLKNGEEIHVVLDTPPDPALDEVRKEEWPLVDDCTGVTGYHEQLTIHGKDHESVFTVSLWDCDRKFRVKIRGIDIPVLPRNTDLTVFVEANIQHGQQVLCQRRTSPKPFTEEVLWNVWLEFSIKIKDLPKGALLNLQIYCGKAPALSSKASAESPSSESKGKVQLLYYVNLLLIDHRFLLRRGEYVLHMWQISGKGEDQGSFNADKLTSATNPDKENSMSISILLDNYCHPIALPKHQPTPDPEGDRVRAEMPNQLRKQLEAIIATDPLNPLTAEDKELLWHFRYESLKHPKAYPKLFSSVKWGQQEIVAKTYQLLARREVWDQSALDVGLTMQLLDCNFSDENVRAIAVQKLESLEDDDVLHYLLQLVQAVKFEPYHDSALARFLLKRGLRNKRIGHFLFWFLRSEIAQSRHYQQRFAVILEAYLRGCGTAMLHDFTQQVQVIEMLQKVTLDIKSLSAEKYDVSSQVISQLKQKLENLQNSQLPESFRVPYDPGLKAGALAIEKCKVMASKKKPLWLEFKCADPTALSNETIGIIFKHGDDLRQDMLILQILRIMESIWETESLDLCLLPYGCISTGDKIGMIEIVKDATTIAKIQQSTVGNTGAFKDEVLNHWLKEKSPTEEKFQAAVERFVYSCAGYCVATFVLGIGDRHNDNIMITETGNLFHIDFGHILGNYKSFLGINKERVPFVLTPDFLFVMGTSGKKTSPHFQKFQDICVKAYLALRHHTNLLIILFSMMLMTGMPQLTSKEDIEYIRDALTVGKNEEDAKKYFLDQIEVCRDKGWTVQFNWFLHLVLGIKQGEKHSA
In general terms: Fluorescence polarisation rises when a labelled molecule tumbles more slowly, as on binding a larger partner.

Test [5] has as its target T1, mTOR Kinase (FLAG-TOR) (Homo sapiens, UniProt P42345).
T1 construct: FLAG
The experiment in a line: mTOR kinase assay, purified enzyme, DELFIA format. Type of test: biochemical. The settings on record: 100 μM ATP, 1.25 μM His6-S6K; read-out: mTOR Kinase Median IC50.

Test [6] concerns the target PI3Kα (Homo sapiens, UniProt P42336). The experiment in a line: PI3K-alpha fluorescence polarization assay. The conditions noted are these: 20 μM PIP2, 25 μM ATP; read-out: PI3Kα Median IC50. Type of test: biochemical.

Where two headings read alike, the source gives them in different places. Where only a bound is given, the exact number is not on record here.

Here are results for 8 compounds from patent US20100003250A1, “(2-ARYL-7H-PYRROLO[2,3-D]PYRIMIDIN-4-YL)MORPHOLINE COMPOUNDS, THEIR USE AS MTOR KINASE AND PI3 KINASE INHIBITORS, AND THEIR SYNTHESES” (Wyeth, priority 2008, published 2010).

Chain of PI3Kα (P42336 whole entry, species assumed): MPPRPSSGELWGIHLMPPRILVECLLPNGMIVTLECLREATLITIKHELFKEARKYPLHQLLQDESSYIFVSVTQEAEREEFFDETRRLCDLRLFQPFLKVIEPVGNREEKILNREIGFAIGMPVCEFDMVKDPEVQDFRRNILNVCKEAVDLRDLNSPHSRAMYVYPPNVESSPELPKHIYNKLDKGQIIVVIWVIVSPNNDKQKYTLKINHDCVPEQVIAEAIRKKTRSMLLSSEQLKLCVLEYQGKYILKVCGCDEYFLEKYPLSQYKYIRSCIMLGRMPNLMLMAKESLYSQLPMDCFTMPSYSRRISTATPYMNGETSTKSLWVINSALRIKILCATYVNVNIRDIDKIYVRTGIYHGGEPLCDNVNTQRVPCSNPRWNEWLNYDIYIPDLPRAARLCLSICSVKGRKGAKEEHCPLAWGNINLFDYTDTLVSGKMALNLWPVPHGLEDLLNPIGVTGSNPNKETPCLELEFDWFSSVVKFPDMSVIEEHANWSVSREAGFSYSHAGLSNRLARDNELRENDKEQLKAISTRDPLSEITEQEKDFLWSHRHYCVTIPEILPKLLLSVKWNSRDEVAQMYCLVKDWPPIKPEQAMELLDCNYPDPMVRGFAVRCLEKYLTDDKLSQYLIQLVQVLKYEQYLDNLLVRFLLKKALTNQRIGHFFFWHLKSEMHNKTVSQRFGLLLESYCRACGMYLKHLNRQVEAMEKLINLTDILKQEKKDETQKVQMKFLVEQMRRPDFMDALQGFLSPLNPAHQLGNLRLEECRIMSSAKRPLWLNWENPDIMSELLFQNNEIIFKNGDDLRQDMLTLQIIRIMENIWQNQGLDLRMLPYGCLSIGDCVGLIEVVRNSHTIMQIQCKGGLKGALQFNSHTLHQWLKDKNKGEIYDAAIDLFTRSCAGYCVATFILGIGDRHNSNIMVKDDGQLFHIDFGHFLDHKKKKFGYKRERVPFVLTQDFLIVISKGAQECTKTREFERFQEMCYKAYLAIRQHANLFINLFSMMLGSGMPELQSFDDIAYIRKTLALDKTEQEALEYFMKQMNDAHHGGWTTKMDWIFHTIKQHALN
Chain of PI3Kα (P27986 whole entry partner, species assumed): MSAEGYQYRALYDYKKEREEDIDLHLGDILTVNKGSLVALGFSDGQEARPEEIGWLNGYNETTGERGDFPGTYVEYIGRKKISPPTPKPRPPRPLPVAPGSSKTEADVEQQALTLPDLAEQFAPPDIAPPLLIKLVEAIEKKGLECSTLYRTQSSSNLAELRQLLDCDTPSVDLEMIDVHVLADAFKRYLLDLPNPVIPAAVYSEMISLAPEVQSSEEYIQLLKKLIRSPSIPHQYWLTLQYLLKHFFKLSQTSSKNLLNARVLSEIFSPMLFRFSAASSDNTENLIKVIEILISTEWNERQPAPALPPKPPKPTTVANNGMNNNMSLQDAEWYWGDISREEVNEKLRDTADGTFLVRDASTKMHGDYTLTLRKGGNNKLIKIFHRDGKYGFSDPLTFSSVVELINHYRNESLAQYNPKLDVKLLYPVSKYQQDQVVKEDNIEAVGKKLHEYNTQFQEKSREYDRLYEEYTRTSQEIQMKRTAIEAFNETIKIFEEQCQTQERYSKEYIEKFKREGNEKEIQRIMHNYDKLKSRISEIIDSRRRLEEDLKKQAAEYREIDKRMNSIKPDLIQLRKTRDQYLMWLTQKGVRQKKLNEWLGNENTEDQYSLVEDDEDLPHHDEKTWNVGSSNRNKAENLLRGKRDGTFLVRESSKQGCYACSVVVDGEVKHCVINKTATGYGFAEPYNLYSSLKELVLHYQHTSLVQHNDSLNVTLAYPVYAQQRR

Regarding `Oc1cccc(-c2nc(N3CCOCC3)c3oc4ncccc4c3n2)c1` [PI103, 3-(4-(4-morpholinyl)pyrido[3′,2′:4,5]furo[3,2-d]pyrimidin-2-yl)phenol], the “activity in human tumor xenograft models” value in test [1] (I.P. dosing in mice, U87MG, PC3, MDA-MB-468, MDA-MB-435, HCT 116, SKOV3, IGROV-1) is listed as “demonstrated activity”.

On to `Cn1c(=O)n(-c2ccc(C(C)(C)C#N)cc2)c2c3cc(-c4cnc5ccccc5c4)ccc3ncc21` [NVP-BEZ-235, 2-methyl-2-(4-(3-methyl-2-oxo-8-(quinolin-3-yl)-2,3-dihydro-1H-imidazo[4,5-c]quinolin-1-yl)phenyl)propanenitrile], for which, in test [1] (prostrate (PC-3) and glioblastoma (U-87)), the “activity in human tumor xenograft models” value is listed as “demonstrated activity”.

For the compound `CO[C@H]1C[C@@H]2CC[C@@H](C)[C@@](O)(O2)C(=O)C(=O)N2CCCC[C@H]2C(=O)O[C@H]([C@H](C)C[C@@H]2CC[C@@H](OC(=O)C(C)(CO)CO)[C@H](OC)C2)CC(=O)[C@H](C)/C=C(\C)[C@@H](O)[C@@H](OC)C(=O)[C@H](C)C[C@H](C)/C=C/C=C/C=C/1C` [Torisel], the “activity in NOS/SCID xenograft mouse model of acute lymphoblastic leukemia” value in test [2] was “active”.

As usually defined, the IC50 is the concentration that inhibits the measured activity by half. As for `FC(F)c1nc2ccccc2n1-c1nc(N2CCOCC2)nc(N2CCOCC2)n1` [ZSTK474, 2-(2-difluoromethylbenzoimidazol-1-yl)-4,6-dimorpholino-1,3,5-triazine], in test [3], the IC50 was greater than 10000 nM. Also, the “tumor growth in mouse human xenograft cancer models” value in test [1] (chronic oral administration, 400 mg/kg, A549, PC-3, WiDr) is “completely inhibited growth”.

Turning to `CCn1ccc2c(N3CCOCC3)nc(-c3ccc(NC(=O)Nc4ccc(C(=O)NCCCN(C)C)cc4)cc3)nc21` [Compound 74, N-[3-(dimethylamino)propyl]-4-({[4-(7-ethyl-4-morpholin-4-yl-7H-pyrrolo[2,3-d]pyrimidin-2-yl)phenyl]carbamoyl}amino)benzamide], the IC50 in test [4] turned out to be 32 nM; in test [5], 1.2 nM; in test [6] it was 1.9 nM.

Regarding `O=C(Nc1nc2cc(-c3nc(N4CCOCC4)c4ccn(CC(F)(F)F)c4n3)ccc2[nH]1)c1ccncc1` [Compound 47, N-{5-[4-morpholin-4-yl-7-(2,2,2-trifluoroethyl)-7H-pyrrolo[2,3-d]pyrimidin-2-yl]-1H-benzimidazol-2-yl}isonicotinamide], the IC50 in test [4] was found to be 5230 nM; in test [5] it was 300 nM; in test [6] it was 1080 nM.

As for `COC(=O)c1ccc(NC(=O)Nc2ccc(-c3nc(N4CCOCC4)c4ccn(CC(F)(F)F)c4n3)cc2)cc1` [Compound 50, methyl 4-[({4-[4-morpholin-4-yl-7-(2,2,2-trifluoroethyl)-7H-pyrrolo[2,3-d]pyrimidin-2-yl]phenyl}carbamoyl)amino]benzoate], the IC50 in test [4] is greater than 10000 nM; in test [5], 4.9 nM; in test [6], 8710 nM.

`CNCCn1ccc2c(N3CCOCC3)nc(-c3ccc(NC(=O)Nc4ccncc4)cc3)nc21` [Compound 33, 1-(4-{7-[2-(methylamino)ethyl]-4-morpholin-4-yl-7H-pyrrolo[2,3-d]pyrimidin-2-yl}phenyl)-3-pyridin-4-ylurea]: the values for the IC50 in test [4], in test [5] and in test [6] were 100 nM, 5.3 nM and 12 nM, respectively.
